Key:
[1] = molecular target: T1, HBV core protein (C-terminal truncated, 149 aa assembly domain) (Hepatitis B virus genotype D subtype adw, UniProt P03147, C107A/C48A/C61A); assay: Biochemical capsid assembly assay (fluorescence quenching); details: BODIPY-FL labelled core protein, assembly started with NaCl, read after 6 min; read-out: Assembly Activity
T1 construct: The C-terminal truncated core protein containing 149 amino acids of the N-terminal assembly domain; made in house; host or cells: E. coli BL21 (DE3) Rosetta2, plasmid pET21b
T1 sequence (P03147 1-150, looked up, stated change not applied): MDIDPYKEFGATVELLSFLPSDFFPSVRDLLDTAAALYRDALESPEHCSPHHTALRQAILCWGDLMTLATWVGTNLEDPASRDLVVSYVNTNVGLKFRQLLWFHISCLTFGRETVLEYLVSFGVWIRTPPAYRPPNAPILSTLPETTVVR
Protocol: Biochemical Capsid Assembly Assay
The screening for assembly effector activity was done based on a fluorescence quenching assay published by Zlotnick et al. (2007). The C-terminal truncated core protein containing 149 amino acids of the N-terminal assembly domain fused to a unique cysteine residue at position 150 and was expressed in E. coli using the pET expression system (Merck Chemicals, Darmstadt). Purification of core dimer protein was performed using a sequence of size exclusion chromatography steps. In brief, the cell pellet from 1 L BL21 (DE3) Rosetta2 culture expressing the coding sequence of core protein cloned NdeI/XhoI into expression plasmid pET21b was treated for 1 h on ice with a native lysis buffer (Qproteome Bacterial Protein Prep Kit; Qiagen, Hilden). After a centrifugation step the supernatant was precipitated during 2 h stirring on ice with 0.23 g/ml of solid ammonium sulfate. Following further centrifugation the resulting pellet was resolved in buffer A (100 mM Tris, pH 7.5; 100 mM NaCl; 2 mM DTT) and was subsequently loaded onto a buffer A equilibrated CaptoCore 700 column (GE HealthCare, Frankfurt). The column flow through containing the assembled HBV capsid was dialyzed against buffer N (50 mM NaHCO3 pH 9.6; 5 mM DTT) before urea was added to a final concentration of 3M to dissociate the capsid into core dimers for 1.5 h on ice. The protein solution was then loaded onto a 1 L Sephacryl 5300 column. After elution with buffer N core dimer containing fractions were identified by SDS-PAGE and subsequently pooled and dialyzed against 50 mM HEPES pH 7.5; 5 mM DTT. To improve the assembly capacity of the purified core dimers a second round of assembly and disassembly starting with the addition of 5 M NaCl and including the size exclusion chromatography steps described above was performed. From the last chromatography step core dimer containing fractions were pooled and stored in aliquots at concentrations between 1.5 to 2.0 mg/ml at −80° C.
Immediately before labelling the core protein was reduced by adding freshly prepared DTT in a final concentration of 20 mM. After […] on ice storage buffer and DTT was removed using a Sephadex G-25 column (GE HealthCare, Frankfurt) and 50 mM HEPES, pH 7.5. For labelling 1.6 mg/ml core protein was incubated at 4° C. and darkness overnight with BODIPY-FL maleimide (Invitrogen, Karlsruhe) in a final concentration of 1 mM. After labelling the free dye was removed by an additional desalting step using a Sephadex G-25 column. Labelled core dimers were stored in aliquots at 4° C. In the dimeric state the fluorescence signal of the labelled core protein is high and is quenched during the assembly of the core dimers to high molecular capsid structures. The screening assay was performed in black 384 well microtiter plates in a total assay volume of 10 μl using 50 mM HEPES pH 7.5 and 1.0 to 2.0 μM labelled core protein. Each screening compound was added in 8 different concentrations using a 0.5 log-unit serial dilution starting at a final concentration of 100 μM, 31.6 μM or 10 μM, In any case the DMSO concentration over the entire microtiter plate was 0.5%. The assembly reaction was started by the injection of NaCl to a final concentration of […] which induces the assembly process to approximately 25% of the maximal quenched signal. 6 min after starting the reaction the fluorescence signal was measured using a Clariostar plate reader (BMG Labtech, Ortenberg) with an excitation of 477 nm and an emission of 525 nm. As 100% and 0% assembly control HEPES buffer containing 2.5 M and 0 M NaCl was used. Experiments were performed thrice in triplicates. EC50 values were calculated by non-linear regression analysis using the Graph Pad Prism 6 software (GraphPad Software, La Jolla, USA).

[2] = system: HBV; assay: HBV replication assay: HBV DNA from the supernatants of HepAD38 cells; type: cell-based; details: Hepatitis B virus, 144 h, HBV DNA in supernatant by qPCR at day 6, read-out: Cell Activity
Protocol: Determination of HBV DNA from the Supernatants of HepAD38 Cells
The anti-HBV activity was analysed in the stable transfected cell line HepAD38, which has been described to secrete high levels of HBV virion particles (Ladner et al., 1997). In brief, HepAD38 cells were cultured at 37° C. at 5% CO2 and 95% humidity in 200 μl maintenance medium, which was Dulbecco's modified Eagle's medium/Nutrient Mixture F-12 (Gibco, Karlsruhe), 10% fetal bovine serum (PAN Biotech Aidenbach) supplemented with 50 μg/ml penicillin/streptomycin (Gibco, Karlsruhe), 2 mM L-glutamine (PAN Biotech, Aidenbach), 400 μg/ml G418 (AppliChem, Darmstadt) and 0.3 μg/ml tetracycline. Cells were subcultured once a week in a 1:5 ratio, but were usually not passaged more than ten times. For the assay 60,000 cells were seeded in maintenance medium without any tetracycline into each well of a 96-well plate and treated with serial half-log dilutions of test compound. To minimize edge effects the outer 36 wells of the plate were not used but were filled with assay medium. On each assay plate six wells for the virus control (untreated HepAD38 cells) and six wells for the cell control (HepAD38 cells treated with 0.3 μg/ml tetracycline) were allocated, respectively. In addition, one plate set with reference inhibitors like BAY 41-4109, entecavir, and lamivudine instead of screening compounds were prepared in each experiment. In general, experiments were performed thrice in triplicates. At day 6 HBV DNA from 100 μl filtrated cell culture supernatant (AcroPrep Advance 96 Filter Plate, […] Supor membran, PALL GmbH, Dreieich) was automatically purified on the MagNa Pure LC instrument using the MagNA Pure 96 DNA and Viral NA Small Volume Kit (Roche Diagnostics, Mannheim) according to the instructions of the manufacturer. EC50 values were calculated from relative copy numbers of HBV DNA In brief, 5 μl of the 100 μl eluate containing HBV DNA were subjected to PCR LC480 Probes Master Kit (Roche) together with 1 μM antisense primer […], 0.5 μM sense primer […], 0.3 μM hybprobes […]-FL and LC640-[…]-PH (TIBMolBiol, Berlin) to a final volume of […]. The PCR was performed on the Light Cycler 480 real time system (Roche Diagnostics, Mannheim) using the following protocol: Pre-incubation for 1 min at 95° C., amplification: 40 cycles×(10 sec at 95° C., 50 sec at 60° C., 1 sec at 70° C.), cooling for 10 sec at 40° C. Viral load was quantitated against known standards using HBV plasmid DNA of pCH-9/3091 (Nassal et al., 1990, Cell 63: 1357-1363) and the LightCycler 480 SW 1.5 software (Roche Diagnostics, Mannheim) and EC50 values were calculated using non-linear regression with GraphPad Prism 6 (GraphPad Software Inc., La Jolla, USA).

| SMILES | IC50 [1] [µM] | EC50 [2] [µM] |
| --- | --- | --- |
| CC1Cc2[nH]nc(-c3cscn3)c2CN1C(=O)c1cc2ccc(Cl)cn2c1 (stereo not shown) [Example 21, 6-chloro-2-[6-methyl-3-(1,3-thiazol-4-yl)-1H,4H,5H,6H,7H-pyrazolo[4,3-c]pyridine-5-carbonyl]indolizine] | 5 to 10 | < 1 |
| CC1Cc2[nH]nc(-c3cscn3)c2CN1C(=O)c1cc2cc(Cl)c(F)cn2c1 (stereo not shown) [Example 22, 7-chloro-6-fluoro-2-[6-methyl-3-(1,3-thiazol-4-yl)-1H,4H,5H,6H,7H-pyrazolo[4,3-c]pyridine-5-carbonyl]indolizine] | 5 to 10 | < 1 |
| CC1Cc2[nH]nc(-c3cscn3)c2CN1C(=O)c1cc2ccc(F)cn2c1 (stereo not shown) [Example 23, 6-fluoro-2-[6-methyl-3-(1,3-thiazol-4-yl)-1H,4H,5H,6H,7H-pyrazolo[4,3-c]pyridine-5-carbonyl]indolizine] | < 5 | < 1 |
| CC1Cc2[nH]nc(-c3cscn3)c2CN1C(=O)c1cc2c(F)cccn2c1 (stereo not shown) [Example 24, 8-fluoro-2-[6-methyl-3-(1,3-thiazol-4-yl)-1H,4H,5H,6H,7H-pyrazolo[4,3-c]pyridine-5-carbonyl]indolizine] | < 5 | < 1 |
| CC1Cc2[nH]nc(-c3cscn3)c2CN1C(=O)c1cc2c(C(F)(F)F)cccn2c1 (stereo not shown) [Example 25, 2-[6-methyl-3-(1,3-thiazol-4-yl)-1H,4H,5H,6H,7H-pyrazolo[4,3-c]pyridine-5-carbonyl]-8-(trifluoromethyl)indolizine] | 5 to 10 | < 1 |
| CC1Cc2[nH]nc(-c3cscn3)c2CN1C(=O)c1cc2ccccn2c1 (stereo not shown) [Example 26, 2-[6-methyl-3-(1,3-thiazol-4-yl)-1H,4H,5H,6H,7H-pyrazolo[4,3-c]pyridine-5-carbonyl]indolizine] | < 5 | < 1 |
| CC(NC(=O)c1noc2c1CN(C(=O)c1cc3ccccn3c1)CC2)C(F)(F)F (stereo not shown) [Example 51, 5-(indolizine-2-carbonyl)-N-(1,1,1-trifluoropropan-2-yl)-4H,5H,6H,7H-[1,2]oxazolo[4,5-c]pyridine-3-carboxamide] | < 5 | < 1 |
| CC(NC(=O)c1onc2c1CN(C(=O)c1cc3ccccn3c1)CC2)C(F)(F)F (stereo not shown) [Example 53, 5-(indolizine-2-carbonyl)-N-(1,1,1-trifluoropropan-2-yl)-4H,5H,6H,7H-[1,2]oxazolo[4,3-c]pyridine-3-carboxamide] | < 5 | < 1 |
